The structures appear in SMILES notation. “And” between values parts separate entries of the source, which are not always exact repeats. Identical values can stand only once. Like-named read-outs stand apart in the source and are kept apart here.

This is an account of results in US11716994B2, “Combinations of Yersinia entomophaga and pesticides or other substances” (priority 2017, dated 2023).

Series [1] deals with fall armyworm. As to the kind of experiment: Leaf disk mortality assay, Y. entomophaga cells with chemical insecticides. To be noted: for LT50 (95% confidence intervals) in days / LT50 (95% confidence intervals): 3rd instar; for mortality at 19 µg/mL / mortality at 60 µg/mL / mortality at 300 µg/mL: Spodoptera frugiperda, foliar; for % Mort. Chem. / LT50 Chem.: fall armyworm.
Series [2] deals with diamondback moth. Kind of series: whole plant or invertebrate. The conditions noted are these: for LT50 (95% confidence intervals) / LT50 (95% confidence intervals) in days: 2nd instar diamondback moth; for LT50 Chem. / % Mort. Chem.: Diamondback moth; for LT50 (95% confidence intervals) in days: Probit analysis.
Description: (§1) These were set to dry for 1 hr.
as §1
These were set to dry for 1 hr. Cabbage disks were then dipped in either 1% Luria broth (LB) media solution (controls and thiacloprid alone treatments) or in 1% cell free filtrate from a culture Y. entomophaga isolate O24G3R (Y. entomophaga alone or in combination with thiacloprid treatments).

The subject of series [3] is black cutworm. As to the kind of experiment: Leaf disk mortality assay, Y. entomophaga cells with chemical insecticides. The conditions noted are these: for LT50 Chem.: black cutworm.
Series [4] concerns cabbage looper. To be noted: Cabbage Looper, clothianidin 60 mg/L.
Description: To produce cell free filtrates, cultures of Yersinia entomophaga grown in LB medium were centrifuged at 11,448 (g) for 10 minutes. The supernatant was decanted from the centrifuged pellet and filtered through a 0.22 μm filter. Assays were performed to determine concentrations of Yen-TC (toxin complex) using ELISA, and chitinase by measuring chitinase activity on specific substrates. […] This was done to estimate relative potency of the cell free filtrates. Insects were first pre-screened with a range of dilutions of cell free filtrates to select a concentration that provided moderate activity. […] Based on these initial screens, undiluted cell free filtrate was used for cabbage looper, fall armyworm, black cutworm, and Colorado potato beetle. […] In each of the Examples below, this is expressed as 1%.
Cabbage leaf disks were dipped in either acetone (controls and Y. entomophaga alone treatments) or novaluron (Sigma 32419) at 1.0 mg/L in acetone. These were set to dry for 1 hr. […] After the cabbage disks had dried for 1 hr, a single 3rd instar cabbage looper was added to each individual cabbage disk. A total of 20 insects were evaluate for each treatment. Insects were observed daily and scored as live or dead.
For series [5], the system named is cabbage looper.

As to `CCOP(=S)(OCC)Oc1nc(Cl)c(Cl)cc1Cl` [Chlorpyrifos], the “LT50 (95% confidence intervals) in days” value in series [1] (chlorpyrifos 19 mg/L, isolate O24G3R 1×10^5 cfu/mL) is 8.02 (7.22-8.91) days; in series [1] (chlorpyrifos 19 mg/L, isolate O24KEK 1×10^5 cfu/mL) it was 8.02 (7.22-8.91) days; in series [1] (chlorpyrifos 19 mg/L, isolate O43NEW 1×10^5 cfu/mL), 6.83 (6.09-7.66) days. The “LT50 (95% confidence intervals)” value in series [1] (chlorpyrifos 19 mg/L, isolate O333A4 1×10^5 cfu/mL) was 8.02 days; in series [2] (chlorpyrifos 3.8 mg/L, O43NEW filtrate 1%, alone or combined) it was 3.72 days. For the same molecule, the mortality at 19 µg/mL in series [1] (72 h, read-out: % Mortality (3DAT), 3rd instar, chlorpyrifos 19 mg/L, isolate O43NEW 1×10^5 cfu/mL) is 40%; in series [1] (96 h, read-out: % Mortality (4DAT), 3rd instar, chlorpyrifos 19 mg/L, isolate O43NEW 1×10^5 cfu/mL) it was 45%; in series [1] (96 h, read-out: % Mortality (4DAT), 3rd instar, chlorpyrifos 19 mg/L, isolate O333A4 1×10^5 cfu/mL), 35%; in series [1] (120 h, read-out: % Mortality (5DAT), 3rd instar, chlorpyrifos 19 mg/L, isolate O24G3R 1×10^5 cfu/mL), 35%; in series [1] (120 h, read-out: % Mortality (5DAT), 3rd instar, chlorpyrifos 19 mg/L, isolate O333A4 1×10^5 cfu/mL), 35%; in series [1] (144 h, read-out: % Mortality (6DAT), 3rd instar, chlorpyrifos 19 mg/L, isolate O24G3R 1×10^5 cfu/mL) it was 35%. The mortality at 19 µg/mL in series [1] (144 h, read-out: % Mortality (6DAT), 3rd instar, chlorpyrifos 19 mg/L, isolate O24KEK 1×10^5 cfu/mL) was 35%; in series [1] (144 h, read-out: % Mortality (6DAT), 3rd instar, chlorpyrifos 19 mg/L, isolate O333A4 1×10^5 cfu/mL), 35%; in series [1] (168 h, read-out: % Mortality (7DAT), 3rd instar, chlorpyrifos 19 mg/L, isolate O24G3R 1×10^5 cfu/mL), 40%; in series [1] (168 h, read-out: % Mortality (7DAT), 3rd instar, chlorpyrifos 19 mg/L, isolate O24KEK 1×10^5 cfu/mL), 40%; in series [1] (168 h, read-out: % Mortality (7DAT), 3rd instar, chlorpyrifos 19 mg/L, isolate O333A4 1×10^5 cfu/mL) it was 40%. Besides, the “% Mort. Chem.” value in series [1] (Chlorpyrifos 19 mg/L, 3 DAT) is recorded as 40%; in series [1] (Chlorpyrifos 19 mg/L, 5 DAT), 35%; in series [1] (Chlorpyrifos 19 mg/L, 6 DAT (row with O24KEK)) it was 35%; in series [1] (Chlorpyrifos 19 mg/L, 6 DAT (row with O333A4)) it was 35%; in series [2] (chlorpyrifos 3.8 mg/L, 4 DAT), 74%. For the same molecule, the “LT50 Chem.” value in series [1] (Chlorpyrifos alone 19 mg/L) was 6.83 days and 8.02 days; in series [2] (chlorpyrifos 3.8 mg/L), 3.72 days. The mortality at 3.8 µg/mL in series [2] (Plutella xylostella, foliar, 96 h, read-out: % Mortality (4DAT), 2nd instar diamondback moth, chlorpyrifos 3.8 mg/L, O43NEW filtrate 1%, alone or combined, 4 DAT, Abbott's corrected) turned out to be 74%.
In the case of `CC1(C)[C@H](C(=O)O[C@H](C#N)c2cccc(Oc3ccccc3)c2)[C@@H]1/C=C(\Cl)C(F)(F)F` (racemic) [λ-cyhalothrin], the “LT50 (95% confidence intervals)” value in series [1] (λ-cyhalothrin […], isolate O43NEW 1×10^5 cfu/mL) is recorded as 5.20 days. In addition, the “LT50 Chem.” value in series [1] (λ-cyhalothrin alone […]) stood at 5.20 days.
`Cc1cc(C(F)(C(F)(F)F)C(F)(F)F)ccc1NC(=O)c1cccc(I)c1C(=O)NC(C)(C)CS(C)(=O)=O` [Flubendiami-de]: the “LT50 Chem.” value in series [3] (Flubendiami-de alone 0.2 mg/L) was 4.83 days; in series [3] (Flubendiami-de alone 0.59 mg/L), 4.99 days.
Regarding `CN/C(=N\[N+](=O)[O-])NCc1cnc(Cl)s1` [Clothianidin], the “LT50 (95% confidence intervals) in days” value in series [1] (clothianidin 60 mg/L, isolate O24G3R 1×10^5 cfu/mL) was 9.38 (8.57-10.27) days; in series [1] (clothianidin 60 mg/L, isolate O43NEW 1×10^5 cfu/mL) it was 10.94 (9.97-12.03) days; in series [1] (clothianidin 60 mg/L, isolate O333A4 1×10^5 cfu/mL), 22.94 (19.21-27.62) days. The mortality at 60 µg/mL in series [1] (96 h, read-out: % Mortality (4DAT), 3rd instar, clothianidin 60 mg/L, isolate O333A4 1×10^5 cfu/mL) turned out to be 0%; in series [1] (120 h, read-out: % Mortality (5DAT), 3rd instar, clothianidin 60 mg/L, isolate O24G3R 1×10^5 cfu/mL), 5%; in series [1] (120 h, read-out: % Mortality (5DAT), 3rd instar, clothianidin 60 mg/L, isolate O333A4 1×10^5 cfu/mL) it was 0%; in series [1] (144 h, read-out: % Mortality (6DAT), 3rd instar, clothianidin 60 mg/L, isolate O24G3R 1×10^5 cfu/mL), 11%; in series [1] (168 h, read-out: % Mortality (7DAT), 3rd instar, clothianidin 60 mg/L, isolate O43NEW 1×10^5 cfu/mL), 0%; in series [1] (168 h, read-out: % Mortality (7DAT), 3rd instar, clothianidin 60 mg/L, isolate O333A4 1×10^5 cfu/mL), 5%. The mortality at 60 µg/mL in series [1] (240 h, read-out: % Mortality (10DAT), 3rd instar, clothianidin 60 mg/L, isolate O43NEW 1×10^5 cfu/mL) was found to be 0%; in series [1] (312 h, read-out: % Mortality (13DAT), 3rd instar, clothianidin 60 mg/L, isolate O43NEW 1×10^5 cfu/mL), 11%; in series [2] (Plutella xylostella, foliar, 96 h, read-out: % Mortality (4DAT), 2nd instar diamondback moth, clothianidin 60 mg/L, O43NEW filtrate 1%, alone or combined, 4 DAT, Abbott's corrected) it was 47%; in series [2] (Plutella xylostella, foliar, 120 h, read-out: % Mortality (5DAT), 2nd instar diamondback moth, clothianidin 60 mg/L, O43NEW filtrate 1%, alone or combined, 5 DAT, Abbott's corrected), 53%. In addition, the “% Mort. Chem.” value was 5% in series [1] (Clothianidin 60 mg/L, 5 DAT); 5% in series [1] (Clothianidin 60 mg/L, 7 DAT); 0% in series [1] (Clothianidin 60 mg/L, 10 DAT); 30% in series [4] (5 DAT); 47% in series [2] (clothianidin 60 mg/L, 4 DAT). In addition, the “LT50 Chem.” value in series [4] is 9.07 days; in series [2] (clothianidin 60 mg/L) it was 6.12 days. Also, in series [2] (clothianidin 60 mg/L, O43NEW filtrate 1%, alone or combined), the “LT50 (95% confidence intervals)” value was determined as 6.120 days.
Regarding `CCOC(=O)OC1=C(c2cc(C)ccc2C)C(=O)N[C@]12CC[C@@H](OC)CC2` [Spirotetramat], the “LT50 (95% confidence intervals) in days” value in series [1] (spirotetramat 300 mg/L, isolate O43NEW 1×10^5 cfu/mL) is given as 10.29 (9.39-11.29) days; in series [2] (spirotetramat 30 mg/L, 1% O24G3R filtrate) it was 23.41 (19.1-28.86) days; in series [2] (spirotetramat 30 mg/L, 1% O43NEW filtrate) it was 21.02 (16.86-26.76) days. For the same molecule, the mortality at 300 µg/mL was found to be 6% in series [1] (144 h, read-out: % Mortality (6DAT), 3rd instar, spirotetramat 300 mg/L, isolate O43NEW 1×10^5 cfu/mL) and 13% in series [1] (168 h, read-out: % Mortality (7DAT), 3rd instar, spirotetramat 300 mg/L, isolate O43NEW 1×10^5 cfu/mL). Besides, the “% Mort. Chem.” value in series [1] (Spirotetramat 300 mg/L, 6 DAT) turned out to be 6%; in series [2] (spirotetramat 30 mg/L, 6 DAT, O43NEW experiment), 11%; in series [2] (spirotetramat 30 mg/L, 10 DAT, O24G3R experiment), 0%. Also, the “LT50 Chem.” value in series [1] (Spirotetramat alone 300 mg/L) is 10.29 days; in series [2] (spirotetramat 30 mg/L, O24G3R experiment), 23.41 days; in series [2] (spirotetramat 30 mg/L, O43NEW experiment), 21.02 days. Also, the mortality at 30 µg/mL was found to be 5% in series [2] (Plutella xylostella, foliar, 96 h, read-out: % Mortality (4DAT), diamondback moth, spirotetramat 30 mg/L, 1% O43NEW filtrate, 4 DAT, Abbott's corrected); 5% in series [2] (Plutella xylostella, foliar, 120 h, read-out: % Mortality (5DAT), diamondback moth, spirotetramat 30 mg/L, 1% O43NEW filtrate, 5 DAT, Abbott's corrected); 0% in series [2] (Plutella xylostella, foliar, 144 h, read-out: % Mortality (6DAT), diamondback moth, spirotetramat 30 mg/L, 1% O24G3R filtrate, 6 DAT, Abbott's corrected); 11% in series [2] (Plutella xylostella, foliar, 144 h, read-out: % Mortality (6DAT), diamondback moth, spirotetramat 30 mg/L, 1% O43NEW filtrate, 6 DAT, Abbott's corrected); 16% in series [2] (Plutella xylostella, foliar, 168 h, read-out: % Mortality (7DAT), diamondback moth, spirotetramat 30 mg/L, 1% O43NEW filtrate, 7 DAT, Abbott's corrected); 0% in series [2] (Plutella xylostella, foliar, 240 h, read-out: % Mortality (10DAT), diamondback moth, spirotetramat 30 mg/L, 1% O24G3R filtrate, 10 DAT, Abbott's corrected). In addition, the mortality at 30 µg/mL in series [2] (Plutella xylostella, foliar, 264 h, read-out: % Mortality (11DAT), diamondback moth, spirotetramat 30 mg/L, 1% O24G3R filtrate, 11 DAT, Abbott's corrected) worked out at 0%; in series [2] (Plutella xylostella, foliar, 336 h, read-out: % Mortality (14DAT), diamondback moth, spirotetramat 30 mg/L, 1% O24G3R filtrate, 14 DAT, Abbott's corrected) it was 0%.
Take `CC1(C)C(C=C(Cl)Cl)C1C(=O)OC(C#N)c1ccc(F)c(Oc2ccccc2)c1` (centres unmarked) [Cyfluthrin]: the “LT50 Chem.” value in series [5] (cabbage looper, Cyfluthrin alone […]) is given as 7.33 days. Moreover, in series [5] (in vivo), the “% Mortality (4DAT)” value is 30%, the “% Mortality (5DAT)” value amounted to 50% and the “LT75 (95% confidence intervals)” value was 7.326 days. Also, in series [3] (3rd instar, cyfluthrin […], isolate O43NEW 1×10^4 cfu/mL), the “LT50 (95% confidence intervals)” value is given as 8.82 days. Also, the “LT50 Chem.” value in series [3] (Cyfluthrin alone […]) is listed as 8.82 days.
